In publication PMC9658052, “Virtual Screening and Biological Activity Evaluation of New Potent Inhibitors Targeting Hexokinase-II” (Molecules, 2022):
Like-named read-outs stand apart in the source and are kept apart here.

How the values were obtained:
[1] = parameters: method as in PMID 20215500, PMID 16044218; settings: mice, dose range from 500 mg/Kg to 2000 mg/Kg; cited from earlier work
HK-II = settings: cited from earlier work
HeLa cells = experiment: MTT cytotoxicity assay, HeLa; assay type: cell-based; settings: Homo sapiens, 48 h, read-out: IC50 (toxicity) Hela
Protocol: (§1) Initially, we adopted the MTT assay to screen the cytotoxicity of all compounds toward three different types of cancer cell lines (HeLa, HepG 2 and A549). […] The chemical structures of the selected compounds are depicted in Figure 2.
(§2) HeLa, Hep G2, and A549 cells were purchased from the Shanghai Institute of Biochemistry and Cell Biology, Chinese Academy of Sciences. All cells were cultured in DMEM with 100 units/mL penicillin/streptomycin, 2 mM glutamine, and 10% FBS in a carbon dioxide atmosphere at 37 °C.
(§3) Cytotoxicity was quantified using a standard MTT assay, which is widely used in evaluating cell proliferation and screening for anticancer drugs. Briefly, following 7 × 10^3 cells incubating in 96-well plates for 48 h filled with DMEM medium supplemented with 10% fetal bovine serum (FBS) containing different concentrations of samples, 10 μL/well of MTT (5 mg/mL) was added. After 4 h of incubation at 37 °C, 100 μL of extraction buffer containing 5% iso-butanol, 0.1% HCl, and 10% SDS was added, and then the cells were incubated overnight. As controls, cells were treated with 0.1% (v/v) DMSO alone. The cell viability was calculated by the absorbance (570 nm) of each well obtained using a microplate reader (Thermo Scientific Multiskan GO, Vantaa, Finland).

HepG 2 cells = experiment: MTT cytotoxicity assay, HepG 2; assay type: cell-based; settings: Homo sapiens, HepG2, 48 h, read-out: IC50 (toxicity) HepG 2
Protocol: as §1, §2, §3

A549 cells = experiment: MTT cytotoxicity assay, A549; assay type: cell-based; settings: Homo sapiens, 48 h, read-out: IC50 (toxicity) A549
Protocol: as §1, §2, §3

Hexokinase-II enzyme = target: T1, Hexokinase-II enzyme (Homo sapiens, UniProt P52789); experiment: Hexokinase-II inhibitor screening kit (enzyme activity); assay type: biochemical; settings: compound 1 to 128 μM
T1 construct: purchased Abcam ab211114
T1 sequence (P52789 1-917): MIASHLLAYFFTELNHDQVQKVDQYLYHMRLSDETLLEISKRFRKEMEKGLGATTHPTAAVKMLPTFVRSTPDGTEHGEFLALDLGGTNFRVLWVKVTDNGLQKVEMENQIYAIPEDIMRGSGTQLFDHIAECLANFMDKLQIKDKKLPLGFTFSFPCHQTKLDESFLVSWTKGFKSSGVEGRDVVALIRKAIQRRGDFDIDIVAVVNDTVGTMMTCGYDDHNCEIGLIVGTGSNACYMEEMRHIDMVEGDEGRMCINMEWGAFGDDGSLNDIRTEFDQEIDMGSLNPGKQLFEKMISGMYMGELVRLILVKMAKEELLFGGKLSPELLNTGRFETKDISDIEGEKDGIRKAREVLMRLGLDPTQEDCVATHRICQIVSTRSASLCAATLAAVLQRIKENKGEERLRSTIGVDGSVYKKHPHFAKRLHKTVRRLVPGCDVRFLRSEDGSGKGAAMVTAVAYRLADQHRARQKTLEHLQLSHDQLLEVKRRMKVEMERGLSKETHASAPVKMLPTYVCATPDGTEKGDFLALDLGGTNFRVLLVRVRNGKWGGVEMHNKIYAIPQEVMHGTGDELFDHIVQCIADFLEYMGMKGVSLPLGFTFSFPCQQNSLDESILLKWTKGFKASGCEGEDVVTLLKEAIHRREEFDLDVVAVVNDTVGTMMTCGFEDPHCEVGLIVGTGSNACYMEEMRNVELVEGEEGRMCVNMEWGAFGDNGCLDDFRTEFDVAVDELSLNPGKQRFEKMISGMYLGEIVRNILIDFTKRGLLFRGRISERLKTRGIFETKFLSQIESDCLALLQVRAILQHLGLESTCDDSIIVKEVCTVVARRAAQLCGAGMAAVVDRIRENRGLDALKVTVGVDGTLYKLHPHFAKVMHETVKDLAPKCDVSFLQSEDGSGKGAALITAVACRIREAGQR
Protocol: Since nine compounds display the highest cytotoxicity to three different cancer cells, we then verified the effects of the compounds on Hexokinase-II activity.
Figure 3 Inhibition of compounds 4244-3659 and K611-0094 on Hexokinase-II activity. […] All data were expressed as mean ± SE from three independent experiments. ** p < 0.01 vs. the control groups.
The Hexokinase-II activity was tested via a Hexokinase-II inhibitor screening kit (Abcam, Cambridge, UK, ab211114), and all experiments were carried out following the manufacturer’s instructions. […] HK assay buffer was treated as negative control, bromopyruvic acid was used for positive controls, and DMSO was used as a solvent control. The value of OD at 450 nm at 15 min and 25 min was recorded. IC50 values were calculated in GraphPad Prism 5.

[2] = 5 min at 25 °C preincubation, read-out: EC50, inhibitory effect on HK-II enzyme activity
[3] = read-out: IC50 on Hexokinase-II enzyme

Row | IC50 (Hexokinase-II enzyme; [2]) [µM] | Compound | IC50 (HeLa cells) [µM] | IC50 (HepG 2 cells) [µM] | IC50 (A549 cells) [µM] | also measured
1 |  | O=CC[C@@H](O)[C@H](O)[C@H](O)CO [2-Deoxyglucose (2-DG), 2-Deoxyglucose] |  |  |  | therapeutic effect of a single agent [1]: no significant therapeutic effect
2 |  | O=C(O)C(=O)CBr [3-Bromopyruvate (3-BrPA), 3-Bromopyruvate] |  |  |  | inhibitory action against HK-II (HK-II): moderate inhibitory action
3 | 17.5 ± 1.4 | CN1C(=O)[C@](O)(CC(=O)c2cc(O)ccc2O)c2ccccc21 [4244-3659] | 62.1 ± 2 | 62.5 ± 2.1 | 54.6 ± 2.6 | IC50 (Hexokinase-II enzyme; [3]): 17.5 ± 1.4 µM
4 |  | CCOC(=O)c1c(C)n(C)c2ccc(OC[C@H](O)CN[C@H](CC)CO)cc12 [6913-0012] | 51.9 ± 1.5 | 59 ± 0.2 | 62.6 ± 0.7 | 
5 |  | O=C(N/N=C/c1ccc(Cl)c(Cl)c1)c1cc(O)c(O)c(O)c1 [AK-968/41922716] | 28.5 ± 1.9 | 40 ± 0.2 | 31 | 
6 | > 128 | O[C@H](CNCc1ccccc1)COc1cccc2ccccc12 [AO-423/13128074] | 27.7 ± 0.6 | 30 ± 1.4 | 38.6 ± 0.8 | 
7 | 104 ± 1.1 | Cc1ccc(C(C)C)c(OC[C@H](O)CNCc2ccccc2)c1 [AP-124/43383769] | 25.1 ± 0.9 | 23.3 | 36.5 ± 0.4 | 
8 |  | CC(=O)c1c(C)[nH]c2ccc(OC[C@@H](O)CNCCc3ccccc3)cc12 [D016-0099] | 48.5 ± 1.2 | 44.2 ± 0.6 | 50.4 ± 0.3 | 
9 | > 128 | O=C(CSc1nc2c(sc3ccccc32)c(=O)n1Cc1cccnc1)Nc1ccc(O)c(O)c1 [K263-0793] | 22.4 ± 1.4 | 22.1 ± 0.9 | 27.1 ± 1.4 | 
10 | 45 ± 1.1 | Nc1nc(SCC(=O)Nc2cccc([N+](=O)[O-])c2)sc1C(=O)Nc1nccs1 [K611-0094] | 47.8 ± 0.6 | 57.9 ± 1.7 | 48.8 ± 1.2 | IC50 (Hexokinase-II enzyme; [3]): 45 ± 1.1 µM
11 |  | CN(C)C(=N)N=C(N)N [metformin] |  |  |  | IC50 (HK-II; weak inhibitory effect, read-out: IC50 against HK-II): > 10000 µM
12 |  | €-4-Nitro-N′-(2,3,4-trihydroxybenzylidene) |  |  |  | IC50 (HK-II; read-out: enzyme activity (HK2 inhibitor)): 0.53 ± 0.13 µM
